{"source": "paper PMC12827894", "about": "“Structure-guided design of picomolar-level macrocyclic TRPC5 channel inhibitors with antidepressant activity” (Acta Pharmaceutica Sinica. B, 2025)", "key": {"TRPC1/5": {"target": "T1, TRPC1/5 (Homo sapiens, UniProt P48995+Q9UL62)", "T1 construct": "full-length wild-type or mutant TRPC5 was cloned into a pcDNA3.1 vector; expressed in transfected cells; host or cells: HEK293T", "assay": "Whole-cell patch-clamp, TRPC1/5 heteromer, 100 nmol/L EA", "type": "cell-based", "details": "read-out: IC50, TRPC1/5", "excerpt": "Given that TRPC4 and TRPC5 are highly similar and often form heteromeric with TRPC1, we evaluated JDIC-127's activity on TRPC4, TRPC1/4, and TRPC1/5 using whole-cell patch-clamp recordings under agonist stimulation with 100 nmol/L EA in HEK293T cells. […].\nFor electrophysiological activity testing of compounds against TRPC4 and TRPC5, stably expressed TRPC5 or TRPC4 cells were used for whole-cell patch-clamp recordings, employing a HEKA EPC10 amplifier and […] software (https://www.heka.com/downloads/downloads_main.html#down_patchmaster). Prior to recording, cells were induced with 1 μg/mL tetracycline for 24 h. For TRPC1/4 or TRPC1/5 heteromers, plasmids TRPC1 and TRPC5 or TRPC1 and TRPC4 were co-transfected into HEK293T cells. After 48 to 72 h of transfection, testing was performed. A 1-s ramp protocol from −100 to +100 mV at 0.2 Hz was applied, as previously described. The extracellular solution consisted of 140 mmol/L NaCl, 1 mmol/L MgCl2, 2 mmol/L CaCl2, 10 mmol/L Hepes, 5 mmol/L KCl, and 10 mmol/L D-glucose, with pH adjusted to 7.4 using NaOH. […] The half-maximal inhibitory concentration (IC50) of drugs was determined by recording currents at a +100 mV pulse and analyzing current amplitudes at varying drug concentrations, with IC50 values calculated using the Hill equation. […]"}, "TRPC3": {"target": "TRPC3 (Homo sapiens, UniProt Q13507)", "sequence (Q13507 whole entry, species assumed)": "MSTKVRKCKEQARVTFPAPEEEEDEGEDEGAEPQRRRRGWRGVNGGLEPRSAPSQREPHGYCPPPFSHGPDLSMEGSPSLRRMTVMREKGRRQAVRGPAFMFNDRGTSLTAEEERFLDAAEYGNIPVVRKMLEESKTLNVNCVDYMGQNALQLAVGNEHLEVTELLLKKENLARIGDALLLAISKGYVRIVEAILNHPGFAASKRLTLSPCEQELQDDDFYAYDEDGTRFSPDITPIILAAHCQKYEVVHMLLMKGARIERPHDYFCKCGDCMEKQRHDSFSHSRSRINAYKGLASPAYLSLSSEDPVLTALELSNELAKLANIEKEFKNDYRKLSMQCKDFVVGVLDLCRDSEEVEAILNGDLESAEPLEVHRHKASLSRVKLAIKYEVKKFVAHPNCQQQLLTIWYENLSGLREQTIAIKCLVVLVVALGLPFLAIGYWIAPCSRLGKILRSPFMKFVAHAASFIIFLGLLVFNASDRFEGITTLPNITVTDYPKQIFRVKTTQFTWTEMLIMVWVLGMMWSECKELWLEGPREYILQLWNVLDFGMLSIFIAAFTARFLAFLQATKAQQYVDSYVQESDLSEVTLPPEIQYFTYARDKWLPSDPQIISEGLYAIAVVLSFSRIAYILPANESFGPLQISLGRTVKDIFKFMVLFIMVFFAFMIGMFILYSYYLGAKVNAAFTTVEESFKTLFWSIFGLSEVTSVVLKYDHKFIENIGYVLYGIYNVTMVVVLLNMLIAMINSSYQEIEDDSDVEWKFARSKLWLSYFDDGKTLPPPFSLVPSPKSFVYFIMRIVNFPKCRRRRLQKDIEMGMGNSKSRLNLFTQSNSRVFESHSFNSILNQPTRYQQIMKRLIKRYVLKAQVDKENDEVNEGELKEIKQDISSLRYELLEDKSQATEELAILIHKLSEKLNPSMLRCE", "assay": "Patch-clamp selectivity, TRPC3", "type": "cell-based", "details": "1 μmol/L"}, "C57BL/6 mice": {"tested_on": "C57BL/6 mice", "assay": "Tail suspension test (TST)", "type": "in vivo"}, "C57BL/6J mice [1]": {"tested_on": "C57BL/6J mice", "assay": "CCK-4-induced anxiety model, elevated plus maze", "type": "in vivo", "details": "CCK-4 model, 10 mg/kg p.o."}, "C57BL/6J mice [2]": {"tested_on": "C57BL/6J mice", "assay": "m-CPP-induced anxiety model, open field test", "type": "in vivo", "details": "10 mg/kg p.o."}, "5-HT1B": {"target": "T2, 5-HT1B (Homo sapiens, UniProt P28222)", "T2 construct": "purchased ICE Bioscience ICESTP SafetyOne44 Panel", "T2 sequence (P28222 whole entry)": "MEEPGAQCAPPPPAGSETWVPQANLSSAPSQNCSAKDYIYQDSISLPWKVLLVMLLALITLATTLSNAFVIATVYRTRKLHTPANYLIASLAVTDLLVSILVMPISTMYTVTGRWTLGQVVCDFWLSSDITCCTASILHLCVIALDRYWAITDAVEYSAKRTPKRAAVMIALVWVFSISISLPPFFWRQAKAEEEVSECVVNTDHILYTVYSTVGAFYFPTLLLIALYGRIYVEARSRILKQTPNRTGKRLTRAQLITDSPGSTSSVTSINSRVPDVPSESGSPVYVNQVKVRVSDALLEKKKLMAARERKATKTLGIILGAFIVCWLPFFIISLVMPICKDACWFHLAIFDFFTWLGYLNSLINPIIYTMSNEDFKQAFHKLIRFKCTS", "assay": "cell-based", "details": "10 μmol/L"}, "5-HT2A": {"target": "T3, 5-HT2A (Homo sapiens, UniProt P28223)", "T3 construct": "purchased ICE Bioscience ICESTP SafetyOne44 Panel", "T3 sequence (P28223 whole entry)": "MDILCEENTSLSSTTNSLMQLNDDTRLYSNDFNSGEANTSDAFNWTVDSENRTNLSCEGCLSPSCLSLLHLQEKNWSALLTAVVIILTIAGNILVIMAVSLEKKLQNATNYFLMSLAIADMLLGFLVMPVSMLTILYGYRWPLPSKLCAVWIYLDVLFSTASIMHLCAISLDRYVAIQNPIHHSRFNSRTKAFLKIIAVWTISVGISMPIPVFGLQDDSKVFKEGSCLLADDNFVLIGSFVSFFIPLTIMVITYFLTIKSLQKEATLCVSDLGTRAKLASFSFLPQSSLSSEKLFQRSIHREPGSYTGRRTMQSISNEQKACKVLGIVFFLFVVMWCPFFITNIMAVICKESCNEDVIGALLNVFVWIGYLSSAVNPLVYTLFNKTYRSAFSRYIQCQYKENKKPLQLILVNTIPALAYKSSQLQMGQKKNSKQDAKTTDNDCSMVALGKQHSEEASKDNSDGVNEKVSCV", "assay": "cell-based", "type": "cell-based"}, "CB2": {"target": "T4, CB2 (Homo sapiens, UniProt P34972)", "T4 construct": "purchased ICE Bioscience ICESTP™ SafetyOne44 Panel", "T4 sequence (P34972 whole entry)": "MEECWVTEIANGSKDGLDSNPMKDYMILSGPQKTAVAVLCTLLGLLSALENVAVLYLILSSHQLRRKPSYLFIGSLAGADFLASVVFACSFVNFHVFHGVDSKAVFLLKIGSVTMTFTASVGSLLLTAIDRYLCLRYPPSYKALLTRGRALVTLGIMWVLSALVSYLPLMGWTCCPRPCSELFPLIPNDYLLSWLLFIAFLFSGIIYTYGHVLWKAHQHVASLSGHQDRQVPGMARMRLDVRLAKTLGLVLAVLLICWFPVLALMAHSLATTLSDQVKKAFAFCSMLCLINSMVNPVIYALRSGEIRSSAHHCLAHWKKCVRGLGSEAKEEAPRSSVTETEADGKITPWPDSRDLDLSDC", "assay": "cell-based", "type": "cell-based"}, "ETA": {"target": "T5, ETA (Homo sapiens, UniProt P25101)", "T5 construct": "purchased ICE Bioscience ICESTP™ SafetyOne44 Panel", "T5 sequence (P25101 21-427)": "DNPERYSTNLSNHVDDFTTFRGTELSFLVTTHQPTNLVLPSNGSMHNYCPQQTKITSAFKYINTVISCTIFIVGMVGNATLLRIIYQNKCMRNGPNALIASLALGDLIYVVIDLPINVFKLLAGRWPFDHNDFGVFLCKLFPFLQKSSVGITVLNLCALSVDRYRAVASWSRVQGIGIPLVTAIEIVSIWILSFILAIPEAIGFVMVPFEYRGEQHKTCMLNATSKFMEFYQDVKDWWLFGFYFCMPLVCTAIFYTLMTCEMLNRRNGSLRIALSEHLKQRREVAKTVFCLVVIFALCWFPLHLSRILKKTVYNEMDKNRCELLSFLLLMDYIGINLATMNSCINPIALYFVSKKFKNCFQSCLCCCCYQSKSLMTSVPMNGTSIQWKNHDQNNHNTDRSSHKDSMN", "assay": "SafetyOne44 panel: ETA", "type": "cell-based", "details": "ETA, 10 μmol/L"}, "μOR": {"target": "T6, μOR (Homo sapiens, UniProt P35372)", "T6 construct": "purchased ICE Bioscience ICESTP™ SafetyOne44 Panel", "T6 sequence (P35372 whole entry)": "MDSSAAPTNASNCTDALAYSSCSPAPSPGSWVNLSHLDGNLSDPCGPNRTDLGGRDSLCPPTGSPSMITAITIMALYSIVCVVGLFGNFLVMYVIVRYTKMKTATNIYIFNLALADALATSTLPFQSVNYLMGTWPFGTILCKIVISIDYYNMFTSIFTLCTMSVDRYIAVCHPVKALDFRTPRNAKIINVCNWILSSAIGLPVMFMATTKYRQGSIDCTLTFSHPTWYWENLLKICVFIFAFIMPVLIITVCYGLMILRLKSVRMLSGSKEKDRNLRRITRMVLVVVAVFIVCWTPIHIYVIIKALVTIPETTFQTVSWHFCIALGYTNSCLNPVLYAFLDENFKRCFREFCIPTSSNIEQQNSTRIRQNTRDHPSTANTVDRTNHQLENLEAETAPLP", "assay": "cell-based", "details": "antagonist mode, 10 μmol/L, read-out: Antagonist JDIC-127 @10 μmol/L"}, "PDE4 D2": {"target": "T7, PDE4 D2 (Homo sapiens, UniProt Q08499)", "T7 construct": "purchased ICE Bioscience ICESTP™ SafetyOne44 Panel", "T7 sequence (Q08499 303-809 limits assumed)": "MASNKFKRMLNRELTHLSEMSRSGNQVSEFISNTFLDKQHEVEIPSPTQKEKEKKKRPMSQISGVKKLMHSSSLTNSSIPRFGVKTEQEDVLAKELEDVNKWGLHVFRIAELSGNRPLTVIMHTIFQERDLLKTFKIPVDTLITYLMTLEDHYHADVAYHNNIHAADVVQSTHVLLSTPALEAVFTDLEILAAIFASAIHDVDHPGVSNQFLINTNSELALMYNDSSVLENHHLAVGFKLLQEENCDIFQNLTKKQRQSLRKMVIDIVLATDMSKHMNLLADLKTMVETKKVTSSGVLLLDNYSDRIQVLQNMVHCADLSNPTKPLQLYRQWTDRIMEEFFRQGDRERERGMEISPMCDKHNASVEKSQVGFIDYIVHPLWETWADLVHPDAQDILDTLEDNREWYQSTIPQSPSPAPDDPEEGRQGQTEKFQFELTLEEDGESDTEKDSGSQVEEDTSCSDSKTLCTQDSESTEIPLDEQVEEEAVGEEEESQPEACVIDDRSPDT", "assay": "biochemical", "details": "PDE4D2, 10 μmol/L; read-out: Antagonist JDIC-127 @10 μmol/L"}, "Cav1.2": {"target": "T8, Cav1.2 (Homo sapiens, UniProt Q13936)", "T8 construct": "ICE Bioscience ICESTP SafetyOne44 Panel", "type": "cell-based", "details": "Cav1.2, 5 μmol/L"}, "H1 [3]": {"target": "T9, H1 (Homo sapiens, UniProt P35367)", "T9 sequence (P35367 whole entry)": "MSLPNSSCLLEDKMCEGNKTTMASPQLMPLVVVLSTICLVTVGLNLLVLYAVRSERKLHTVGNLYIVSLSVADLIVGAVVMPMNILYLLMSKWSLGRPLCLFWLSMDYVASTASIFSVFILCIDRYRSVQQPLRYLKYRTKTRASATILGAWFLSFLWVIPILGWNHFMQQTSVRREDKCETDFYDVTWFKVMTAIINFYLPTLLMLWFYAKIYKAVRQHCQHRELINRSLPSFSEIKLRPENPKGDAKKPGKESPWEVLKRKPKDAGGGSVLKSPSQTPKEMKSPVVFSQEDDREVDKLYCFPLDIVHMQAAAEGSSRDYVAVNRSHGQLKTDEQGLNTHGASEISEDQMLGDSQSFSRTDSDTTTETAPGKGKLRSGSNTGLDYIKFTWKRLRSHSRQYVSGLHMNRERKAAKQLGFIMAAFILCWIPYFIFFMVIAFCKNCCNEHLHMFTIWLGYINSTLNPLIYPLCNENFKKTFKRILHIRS", "details": "H1, agonist mode"}, "COX1": {"target": "COX1 (Homo sapiens, UniProt P23219)", "sequence (P23219 24-599)": "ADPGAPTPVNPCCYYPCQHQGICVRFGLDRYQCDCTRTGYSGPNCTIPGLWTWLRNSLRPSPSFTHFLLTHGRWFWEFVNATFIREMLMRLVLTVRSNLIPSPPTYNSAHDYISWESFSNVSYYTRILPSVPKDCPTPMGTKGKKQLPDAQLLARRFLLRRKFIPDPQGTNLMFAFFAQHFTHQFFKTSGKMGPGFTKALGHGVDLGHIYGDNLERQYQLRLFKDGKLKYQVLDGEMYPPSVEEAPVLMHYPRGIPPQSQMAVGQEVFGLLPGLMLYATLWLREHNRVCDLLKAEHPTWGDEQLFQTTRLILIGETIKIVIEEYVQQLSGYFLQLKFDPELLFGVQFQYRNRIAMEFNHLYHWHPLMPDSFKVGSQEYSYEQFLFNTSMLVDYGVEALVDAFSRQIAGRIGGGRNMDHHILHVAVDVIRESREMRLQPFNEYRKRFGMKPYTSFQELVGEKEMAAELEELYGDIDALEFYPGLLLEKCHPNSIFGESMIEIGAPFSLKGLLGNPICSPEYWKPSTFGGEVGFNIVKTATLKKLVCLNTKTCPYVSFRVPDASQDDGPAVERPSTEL"}, "in vivo": {"assay": "in vivo", "details": "male, C57BL/6, mouse; for Vd: C57BL/6, 2 mpk"}, "H1 [4]": {"target": "T9, H1", "assay": "cell-based", "details": "read-out: Antagonist JDIC-127 @10 μmol/L"}, "[5]": {"details": "antagonist mode, read-out: Antagonist JDIC-127 @10 μmol/L"}}, "note": "Like-named read-outs stand apart in the source and are kept apart here."}
{"compound": "O=c1c2c3nc(n2Cc2ccc(Cl)cc2)Oc2ccc(F)c(c2)OCCCCCCn3c(=O)n1CCCO", "note": "[JDIC-127]", "values": [{"measurement": "IC50", "setting": "TRPC1/5", "result": 0.358, "unit": "nM"}, {"measurement": "inhibition at 1 µM", "setting": "TRPC3", "result": "< 20", "unit": "%"}, {"measurement": "efficacy in TST relative to reference drugs", "setting": "C57BL/6 mice; 0.3 mg/kg p.o. vs 10 mg/kg desipramine, 3 mg/kg HC-070", "result": "comparable efficacy to desipramine and HC-070"}, {"measurement": "immobility time in TST", "setting": "C57BL/6 mice; 0.3 or 3 mg/kg p.o., 60 min prior to testing", "result": "significantly reduced"}, {"measurement": "percentage of entries in the open arms, EPM", "setting": "C57BL/6J mice [1]", "result": "significantly increased"}, {"measurement": "number of entries into the central area, OFT", "setting": "C57BL/6J mice [2]", "result": "significantly increased"}, {"measurement": "Agonist JDIC-127 @10 μmol/L", "setting": "5-HT1B; agonist mode", "result": 10.95, "unit": "%"}, {"measurement": "inhibition at 10 µM", "setting": "5-HT1B; [5]", "result": -14.7, "unit": "%"}, {"measurement": "Agonist JDIC-127 @10 μmol/L", "setting": "5-HT2A; agonist mode", "result": 3.92, "unit": "%"}, {"measurement": "inhibition at 10 µM", "setting": "5-HT2A; antagonist mode, 10 μmol/L, read-out: Antagonist JDIC-127 @10 μmol/L", "result": 5.24, "unit": "%"}, {"measurement": "Agonist JDIC-127 @10 μmol/L", "setting": "CB2; CB2, agonist mode", "result": 26.01, "unit": "%"}, {"measurement": "inhibition at 10 µM", "setting": "CB2; CB2, antagonist mode, 10 μmol/L, read-out: Antagonist JDIC-127 @10 μmol/L", "result": -0.84, "unit": "%"}, {"measurement": "Agonist JDIC-127 @10 μmol/L", "setting": "ETA; agonist mode", "result": 1.45, "unit": "%"}, {"measurement": "inhibition at 10 µM", "setting": "ETA; [5]", "result": 2.63, "unit": "%"}, {"measurement": "inhibition at 10 µM", "setting": "μOR", "result": -16.9, "unit": "%"}, {"measurement": "inhibition at 10 µM", "setting": "PDE4 D2", "result": 11.4, "unit": "%"}, {"measurement": "Antagonist JDIC-127 @5 μmol/L", "setting": "Cav1.2", "result": 20.23, "unit": "%"}, {"measurement": "AUC0–t", "setting": "C57BL/6, 2 mpk, i.v.", "result": 496, "unit": "h∗ng/mL"}, {"measurement": "AUC0–∞", "setting": "C57BL/6, 2 mpk, i.v.", "result": 499, "unit": "h∗ng/mL"}, {"measurement": "AUC0–t", "setting": "C57BL/6, 10 mpk, p.o.", "result": 187, "unit": "h∗ng/mL"}, {"measurement": "AUC0–∞", "setting": "C57BL/6, 10 mpk, p.o.", "result": 193, "unit": "h∗ng/mL"}, {"measurement": "CL", "setting": "C57BL/6, 10 mpk, p.o.", "result": 865, "unit": "mL/min/kg"}, {"measurement": "Vd", "setting": "C57BL/6, 10 mpk, p.o.", "result": 107, "unit": "L/kg"}, {"measurement": "Agonist JDIC-127 @10 μmol/L", "setting": "H1 [3]", "result": 3.21, "unit": "%"}, {"measurement": "Antagonist JDIC-127 @10 μmol/L", "setting": "COX1", "result": "–5.92%"}, {"measurement": "bioavailability", "setting": "in vivo", "result": 7.5, "unit": "%"}, {"measurement": "C0", "setting": "in vivo; iv, 2 mg/kg", "result": 1450, "unit": "ng/mL"}, {"measurement": "MRT", "setting": "in vivo; iv, 2 mg/kg", "result": 52.8, "unit": "min"}, {"measurement": "clearance", "setting": "in vivo; iv, 2 mg/kg", "result": 66.8, "unit": "mL/min/kg"}, {"measurement": "half-life", "setting": "in vivo; iv, 2 mg/kg", "result": 59.4, "unit": "min"}, {"measurement": "Vd", "setting": "in vivo; iv, 2 mg/kg, VSS, i.v.", "result": 3.51, "unit": "L/kg"}, {"measurement": "Vd", "setting": "in vivo; iv, 2 mg/kg, Vd", "result": 5.71, "unit": "L/kg"}, {"measurement": "Cmax", "setting": "in vivo; po, 10 mg/kg", "result": 177, "unit": "ng/mL"}, {"measurement": "MRT", "setting": "in vivo; po, 10 mg/kg", "result": 114, "unit": "min"}, {"measurement": "Tmax", "setting": "in vivo; po, 10 mg/kg", "result": 15, "unit": "min"}, {"measurement": "half-life", "setting": "in vivo; po, 10 mg/kg", "result": 84, "unit": "min"}, {"measurement": "inhibition at 10 µM", "setting": "H1 [4]", "result": -3.39, "unit": "%"}]}
